The test system of one data set is K. pneumoniae E406-17. Description: microbe, parasite or virus in culture. The class given is cell-based, Klebsiella pneumoniae. The gist of the method: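 Broth microdilution in tryptic soy broth: log-phase cultures (OD600 ≈0.5) diluted to OD600 0.001, given two-fold peptide dilutions, incubated overnight at 37° C. Growth read at 630 nm.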
Another data set has as its system S. aureus M838-17 (MRSA). Description: microbe, parasite or virus in culture. The data set is classed as cell-based, Staphylococcus aureus. As to conditions: for MIC: read-out: MIC S. aureus M838-17 (MRSA). The method, boiled down: (§1)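 Broth microdilution: log-phase cultures in tryptic soy broth diluted to OD600 0.001, exposed to two-fold diluted peptides at 37° C overnight, growth read at 630 nm. Medium effects on S. aureus USA300 tested with up to 200 mM NaCl, 2 mM CaCl2, 5-10% human serum, mouse plasma, fluids or tissue homogenate supernatants.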

Another data set deals with S. aureus USA300. Description: microbe, parasite or virus in culture. The data set is classed as cell-based, Staphylococcus aureus. The gist of the method:
as §1

The next data set deals with E. coli E423-17. Description: microbe, parasite or virus in culture. The data set is classed as cell-based, Escherichia coli. The method, boiled down:
as §1

Another data set in a line: Hemolytic assay. The class given is cell-based, human. As to conditions: human. The gist of the method:
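Washed hRBCs (2% v/v) exposed to peptide for 1 h at 37 °C, then centrifuged and hemoglobin in supernatant read at 545 nm. Lysis normalized to Triton X-100 (2% or 1%; 100%) and PBS (0%); HL50 is the peptide concentration giving 50% lysis, and CSI is HL50/MIC.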

A short description of data set [1]: In vivo toxicity after i.p. injection. Further details: species or system mice. Conditions: for Animal death: 10, 20, and 30 mg/kg i.p., five-day experiment; for Mobility: higher peptide doses. On the procedure:
Because DFT561 had crossed multiple in vitro barriers (Table 5), its in vivo toxicity and efficacy was tested. A well-established neutropenic mouse model was used, which is often utilized to evaluate the efficacy of antibiotics and peptide mimics (Ambrose, et al. (2012) Clin. Infect. Dis., 54(3):S220-8; Radzishevsky, et al. (2007) Nat. Biotechnol., 25:657-659). In this model, the effect of immune cells on bacterial killing is minimized via two injections of cyclophosphamide before infection (FIG. 5). To evaluate the safety of the peptide in vivo, the toxicity of DFT561 injected intraperitoneally (i.p.) was compared at […] per mouse. […] In addition, alanine transaminase normally resides in serum and tissues but can be released after liver injury. Differences in a quantitative alanine transaminase assay of liver homogenates from mice treated at 0, 10, and 20 mg/kg was not observed.
Neutropenic mice are widely accepted for systemic efficacy evaluation of antibiotics (Zhao, et al. (2016) Bioorg. Med. Chem. 24:6390-6400; Craig, et al. (1991) J. Antimicrob. Chemother., 27:29-40). This model enables better evaluation of compound potency by minimizing the bacterial clearance effect of the immune system. Using this model, the efficacy of horine against S. aureus USA300 and verine against K. pneumonia E406-17 was tested. C57BL/6 mice were made neutropenic by two injections of cyclophosphamide intraperitoneally (i.p.). The acute toxicity of horine and verine was investigated by i.p. injecting them into mice at 10, 20, and 30 mg/kg body weight.

For the next data set, the system named is A. baumannii B26-16. Description: microbe, parasite or virus in culture. The data set is classed as cell-based, Acinetobacter baumannii. The method, boiled down: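 Broth microdilution in tryptic soy broth: log-phase cultures diluted to 0.001 OD600 and exposed to peptide dilutions overnight at 37 °C, growth read at 630 nm. For S. aureus USA300, medium effects tested at pH 6.8, 7.2 and 8.0, with 150 mM NaCl, or with 5–10% human serum, mouse plasma or peritoneal fluid.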

Setting [2] is: E406-17, read-out: MIC K. pneumoniae E406-17.
[3] abbreviates: E423-17, read-out: MIC E. coli E423-17.

≈ marks a conversion by molar mass, not a printed value. Like-named read-outs stand apart in the source and are kept apart here. Peptide text beside a SMILES is read from it.

For `CC(C)C[C@H](NC(=O)[C@H](CC(C)C)NC(=O)[C@H](CCCCN)NC(=O)[C@H](CC(C)C)NC(=O)CNC(=O)[C@H](CC(C)C)NC(=O)[C@H](CO)NC(=O)[C@H](CC(C)C)NC(=O)[C@H](CC(C)C)NC(=O)[C@H](CC(C)C)NC(=O)[C@H](CCCCN)NC(=O)[C@H](CC(C)C)NC(=O)CN)C(N)=O` [DFT561, GLKLLLSLGLKLL] (H-GLKLLLSLGLKLL-NH2; N-terminus and C-terminus assumed), the MIC was greater than 50 µM in the data set on K. pneumoniae E406-17 (setting [2]); 3.1 µM (≈ 4.28 µg/mL) in the data set on S. aureus M838-17 (MRSA) (M838-17); 1.6 µM (≈ 2.21 µg/mL) with S. aureus USA300 (USA300); 3.1 µM (≈ 4.28 µg/mL) against S. aureus USA300 (USA300, pH 6.8); 1.6 µM (≈ 2.21 µg/mL) in the data set with S. aureus USA300 (USA300, pH 7.4); 1.6 µM (≈ 2.21 µg/mL) in the data set with S. aureus USA300 (USA300, pH 8). Moreover, in the data set on E. coli E423-17 (setting [3]), the MIC is greater than 50 µM. In addition, the “MIC SA (S. aureus USA300)” value with S. aureus USA300 (USA300) came to 1.6 µM (≈ 2.21 µg/mL). In addition, in “Hemolytic assay” (human red blood cells, 2% (v/v)), the HC50 at 1 h is greater than 300 µM. Moreover, in data set [1] (0, 10, and 20 mg/kg), the “Differences in alanine transaminase assay of liver homogenates” value is listed as “not observed”. Also, in data set [1] (5 mg/kg), the “Toxicity (conclusion)” value is listed as “not toxic”. Also, the Behaviour of mice result in data set [1] (10 mg/kg i.p.) is “behaved normal”; in data set [1] (20 or 40 mg/kg i.p.), “reduced activity for 30 minutes”. In addition, the Weight losses result in data set [1] (10, 20, 40 mg/kg i.p.) is “statistically insignificant”.
As for `CC(C)C[C@H](NC(=O)[C@H](Cc1c[nH]c2ccccc12)NC(=O)[C@H](Cc1c[nH]c2ccccc12)NC(=O)[C@@H](N)Cc1c[nH]c2ccccc12)C(=O)N[C@@H](CCCNC(=N)N)C(=O)N[C@@H](CCCNC(=N)N)C(=O)N[C@@H](CCCNC(=N)N)C(=O)N[C@@H](Cc1c[nH]c2ccccc12)C(N)=O` [Horine, WWWLRRRW] (H-WWWLRRRW-NH2; N-terminus and C-terminus assumed), the MIC in the data set with K. pneumoniae E406-17 (setting [2]) is reported as greater than 32 µM; in the data set on A. baumannii B26-16 (B26-16, read-out: MIC A. baumannii B26-16), 32 µM (≈ 43 µg/mL); in the data set on S. aureus USA300 (USA300, read-out: MIC S. aureus USA300 (MRSA)), 4 µM (≈ 5.37 µg/mL); in the data set with E. coli E423-17 (setting [3]), greater than 32 µM. In the data set “Hemolytic assay”, the HC50 at 1 hour was greater than 200 µM. Further, in data set [1], the Animal death result is recorded as “no animal death”. The Mobility result in data set [1] was “initial short-term reduced mobility”.
With `CN[C@H](CC(C)C)C(=O)N[C@H]1C(=O)N[C@@H](CC(N)=O)C(=O)N[C@H]2C(=O)N[C@H]3C(=O)N[C@H](C(=O)N[C@H](C(=O)O)c4cc(O)cc(O)c4-c4cc3ccc4O)[C@H](O)c3ccc(c(Cl)c3)Oc3cc2cc(c3O[C@@H]2O[C@H](CO)[C@@H](O)[C@H](O)[C@H]2O[C@H]2C[C@](C)(N)[C@H](O)[C@H](C)O2)Oc2ccc(cc2Cl)[C@H]1O` [Vancomycin], the MIC in the data set on K. pneumoniae E406-17 (Klebsiella pneumoniae, E40617, read-out: MIC K. pneumoniae E406-17) is greater than 8 µM; in the data set on A. baumannii B26-16 (Acinetobacter baumannii, B2616, read-out: MIC A. baumannii B26-16), greater than 8 µM; in the data set on S. aureus M838-17 (MRSA) (Staphylococcus aureus, MRSA), 0.78 µM (≈ 1.13 µg/mL); with S. aureus USA300 (Staphylococcus aureus, MRSA / USA300, read-out: MIC S. aureus USA300 (MRSA)) it was 1 µM (≈ 1.45 µg/mL); in the data set on E. coli E423-17 (Escherichia coli, E42317, read-out: MIC E. coli E423-17) it was greater than 8 µM.
On to `CC(C)[C@H](NC(=O)[C@H](Cc1c[nH]c2ccccc12)NC(=O)[C@H](Cc1c[nH]c2ccccc12)NC(=O)[C@H](Cc1c[nH]c2ccccc12)NC(=O)[C@H](Cc1c[nH]c2ccccc12)NC(=O)[C@H](CCCNC(=N)N)NC(=O)[C@H](CCCNC(=N)N)NC(=O)[C@@H](N)CCCNC(=N)N)C(N)=O` [Verine, RRRWWWWV] (H-RRRWWWWV-NH2; N-terminus and C-terminus assumed), for which, in the data set with K. pneumoniae E406-17 (Table 12), the “MIC K. pneumonia 406-17” value was found to be 6.25 µM (≈ 8.31 µg/mL). The MIC was 8 µM (≈ 10.6 µg/mL) in the data set on K. pneumoniae E406-17 (Table 14, read-out: MIC K. pneumoniae E406-17); 8 µM (≈ 10.6 µg/mL) in the data set on A. baumannii B26-16 (Table 14, read-out: MIC A. baumannii B26-16); 2 to 4 µM in the data set on S. aureus USA300 (Table 17, strain USA300); 2 µM (≈ 2.66 µg/mL) in the data set with E. coli E423-17 (Table 14, read-out: MIC E. coli E423-17). Also, the “MIC S. aureus M838-17” value against S. aureus M838-17 (MRSA) (Table 12) amounted to 3.1 µM (≈ 4.12 µg/mL). In addition, the “MIC S. aureus USA300 (MRSA)” value against S. aureus USA300 (Table 14) was in the range of 2 to 4 µM. Further, in the data set “Hemolytic assay” (2% hRBCs, read-out: LC50), the HC50 at 1 hour was greater than 200 µM. Moreover, the Animal death result in data set [1] is “no animal death”. For the same compound, in data set [1], the Mobility entry was “initial short-term reduced mobility”.

For the origin of these results see patent US12173088B2, “Anti-microbial peptides” (priority 2018, dated 2024).
